Literature values in patent US7816516B2, “Conjugates of hydroxyalkyl starch and an active agent” (Fresenius Kabi Deutschland GmbH, priority 2001, dated 2010).

Key:
[1] = in vivo
[2] = isolated haemoglobin; dimers eliminated via the kidneys

Compound | portion of renal elimination [1] | biological half-life in the blood circulation [2]
CO[C@@]12[C@H](COC(N)=O)C3=C(C(=O)C(C)=C(N)C3=O)N1C[C@@H]1N[C@@H]12 [mitomycin C] | approximately 18% | 
haemoglobin |  | approx. 1 hour
